Data reported in patent US4550116A, “Piperidine derivatives” (Fordonal, S.A., priority 1983, dated 1985).

Tests used:
[1] = tested on: rat hindquarters; test: Rat hindquarter preparation, responses to high-K+ Krebs' solution; conditions: for TEST A RAT HINDQUARTERS % Recovery: recovery of response at 1 h following perfusion with normal Krebs' solution, 10^-7 M; for TEST A RAT HINDQUARTERS % Inhibition: maximum percentage inhibition, 10^-7 M perfused for 20 minutes, 80 mM K+; for duration of anti-vasoconstrictor effects, compared with terfenadine and cinnarizine: in vitro, rat hindquarter preparation
Experimental: A Rat hindquarter preparation
Responses of rat hindquarters perfused at constant rate were elicited by high -K^+ (80 mM) Krebs' solution. Test compounds (10^-7 M) were perfused for 20 minutes and then compound-free Krebs' perfusion was resumed for 40 min.

[2] = tested on: histamine aerosol; test: Histamine aerosol, protection of guinea-pigs; assay type: in vivo, guinea-pig
[3] = tested on: adrenaline; test: Protection against a lethal dose of adrenaline; assay type: in vivo, swiss mice; conditions: Mus musculus; 100 mg/kg oral, 1 h before 2 mg/kg intravenous adrenaline; mice; read-out: TEST D ANTI-ADRENALINE (animals surviving 15 min later)
Experimental: D. Protection against a lethal dose of adrenaline
Groups of 10 .male. swiss mice (25±3 g) were pretreated orally with compounds (100 mg/kg) suspended in carboxymethyl cellulose 1 h before receiving an intraveneous injection of 2 mg/kg adrenaline. The number of animals surviving 15 min later was noted and expressed as a percentage.

[4] = tested on: histamine H1-receptor; test: Antihistamine activity in anaesthetized rats (vasodepressor responses to histamine); assay type: in vivo, rat; conditions: 0.3 mg/kg i.v.; pentobarbitone anaesthetized rats
Experimental: B. Antihistamine activity in anaesthetized rats
Test compounds were administered to pentobarbitone anaesthetized rats at 0.3 mg/kg i.v. following stable, submaximal, vasodepressor responses to histamine.

[5] = in vivo; conditions: mouse, oral, mice, 48 hour period, unit from method b50, read-out: TEST E ACUTE TOXICITY (approximate LD50)
Experimental: Acute toxicity was assessed in groups of 3 mice given the test compounds suspended in 1% carboxymethylcellulose at 30, 100, 300 and 1000 mg/kg orally.

[6] = 0.3 mg/kg oral, 1 hour before 5 minute challenge of nebulized histamine, groups of 5

For `CC(C)(C)c1ccc(C(=O)CCCN2CCC(OC(c3ccccc3)c3ccccc3)CC2)cc1` [Compound 1, 4-diphenylmethoxy-1-[3-(4-tert-butylbenzoyl)propyl]-piperidine], which “TEST A RAT HINDQUARTERS % Recovery” value [1] is on record?
Its value is 56%.

And the “TEST C ANT[…] (protection)” value [2, 6]?
Its value is “+++ (>50% protection)”.

And the “H1-histamine receptor antagonist properties, orally against histamine aerosol” value ([2]; oral)?
The value was “extremely potent”.

And the responders at 100 mg/kg [3]?
The responders at 100 mg/kg was 50%.

For `CC(C)c1ccc(C(=O)CCCN2CCC(OC(c3ccccc3)c3ccccc3)CC2)cc1` [Compound 2, 4-diphenylmethoxy-1-[3-(4-isopropylbenzoyl)propyl]-piperidine], which “TEST A RAT HINDQUARTERS % Inhibition” value [1] is on record?
Its value is 59%.

And the “TEST A RAT HINDQUARTERS % Recovery” value [1]?
The value was 50%.

What about the “TEST B ANTIHISTAMINE IN RAT (inhibition of the histamine response)” value [4] of the same compound?
Its value is “+++ (50-75%)”.

And the responders at 100 mg/kg [3]?
The responders at 100 mg/kg was 50%.

What about the LD50 at 48 h [5] of the same compound?
Its LD50 at 48 h is > 1000 mg/kg.

Which “duration of anti-vasoconstrictor effects, compared with terfenadine and cinnarizine” value [1] does the source give for `CCc1ccc(C(=O)CCCN2CCC(OC(c3ccccc3)c3ccccc3)CC2)cc1` [Compound 3, 4-diphenylmethoxy-1-[3-(4-ethylbenzoyl)propyl]-piperidine] here?
Its value is “much longer lasting”.

What about the “TEST A RAT HINDQUARTERS % Inhibition” value [1] of the same compound?
The value was 65%.

And the “TEST A RAT HINDQUARTERS % Recovery” value [1]?
Its value is 50%.

What about the “TEST B ANTIHISTAMINE IN RAT (inhibition of the histamine response)” value [4] of the same compound?
Its value is “+++ (50-75%)”.

And the responders at 100 mg/kg [3]?
The responders at 100 mg/kg was 20%.

For `O=C(CCCN1CCC(OC(c2ccccc2)c2ccccc2)CC1)c1ccc(CC2CC2)cc1` [Compound 4, 4-diphenylmethoxy-1-[3-(4-cyclopropylmethylbenzoyl)propyl]-piperidine], which “duration of anti-vasoconstrictor effects, compared with terfenadine and cinnarizine” value [1] is on record?
The value was “much longer lasting”.

What about the “TEST A RAT HINDQUARTERS % Inhibition” value [1] of the same compound?
Its value is 75%.

And the “TEST A RAT HINDQUARTERS % Recovery” value [1]?
The value was 40%.

And the “TEST B ANTIHISTAMINE IN RAT (inhibition of the histamine response)” value [4]?
Its value is “++ (25-50%)”.

What about the responders at 100 mg/kg [3] of the same compound?
The responders at 100 mg/kg was 40%.

For `CC(C)(C)c1ccc(C(=O)CCCN2CCC(OC(c3ccccc3)c3cccs3)CC2)cc1` (stereo not drawn) [Compound 5, 4-[α-(2-thienyl)benzyloxy]-1-[3-(4-tert-butylbenzoyl)propyl]-piperidine], which “duration of anti-vasoconstrictor effects, compared with terfenadine and cinnarizine” value [1] is on record?
The value was “much longer lasting”.

What about the “TEST A RAT HINDQUARTERS % Inhibition” value [1] of the same compound?
The value was 65%.

And the “TEST A RAT HINDQUARTERS % Recovery” value [1]?
Its value is 40%.

What about the “TEST B ANTIHISTAMINE IN RAT (inhibition of the histamine response)” value [4] of the same compound?
Its value is “+++ (50-75%)”.

Which results are given for `OC(CCCN1CCC(OC(c2ccccc2)c2ccccc2)CC1)c1ccc(C2CCCCC2)cc1` (stereo not drawn) [Compound 6, 4-diphenylmethoxy-α-(4-cyclohexylphenyl)-1-piperidinebutanol]?
TEST A RAT HINDQUARTERS % Inhibition [1]: 57%; TEST A RAT HINDQUARTERS % Recovery [1]: 55%; TEST B ANTIHISTAMINE IN RAT (inhibition of the histamine response) [4]: ++ (25-50%); responders at 100 mg/kg [3]: 20%

For `CC(C)(C)c1ccc(C(=O)CCCN2CCC(OC(c3ccc(F)cc3)c3ccc(F)cc3)CC2)cc1` [Compound 7, 4-di(4-fluorophenyl)methoxy-1-[3-(4-tert-butylbenzoyl)propyl]-piperidine], which “duration of anti-vasoconstrictor effects, compared with terfenadine and cinnarizine” value [1] is on record?
Its value is “much longer lasting”.

What about the “TEST A RAT HINDQUARTERS % Inhibition” value [1] of the same compound?
The value was 62%.

What about the “TEST A RAT HINDQUARTERS % Recovery” value [1] of the same compound?
Its value is 13%.

What about the “TEST B ANTIHISTAMINE IN RAT (inhibition of the histamine response)” value [4] of the same compound?
Its value is “+++ (50-75%)”.

What about the responders at 100 mg/kg [3] of the same compound?
Its responders at 100 mg/kg is 40%.

With `CC(C)(C)c1ccc(C(O)CCCN2CCC(OC(c3ccccc3)c3ccccc3)CC2)cc1` (stereo not drawn) [Compound 8, 4-diphenylmethoxy-α-(4-tert-butylphenyl)-1-piperidinebutanol] as the compound, how does the “TEST A RAT HINDQUARTERS % Inhibition” value [1] read?
Its value is 69%.

What about the “TEST A RAT HINDQUARTERS % Recovery” value [1] of the same compound?
The value was 58%.

What about the “TEST B ANTIHISTAMINE IN RAT (inhibition of the histamine response)” value [4] of the same compound?
The value was “++ (25-50%)”.

And the “TEST C ANTIHISTAMINE AEROSOL (protection)” value [2, 6]?
The value was “++ (25-50%)”.

And the responders at 100 mg/kg [3]?
Its responders at 100 mg/kg is 60%.

Which results are given for `CC(C)(C)c1ccc(C(O)CCCN2CCC(C(O)(c3ccccc3)c3ccccc3)CC2)cc1` (stereo not drawn) [TERFENADINE, α-[4-(1,1-dimethylethyl)phenyl]-4-(hydroxydiphenylmethyl)-1-piperidinebutanol, reference compound]?
TEST A RAT HINDQUARTERS % Inhibition [1]: 44%; TEST A RAT HINDQUARTERS % Recovery [1]: 100%; TEST C ANTIHISTAMINE AEROSOL (protection) [2, 6]: + (10-25%); responders at 100 mg/kg [3]: 20%; LD50 at 48 h [5]: > 1000 mg/kg
